By melting point is commonly meant the temperature of the solid-liquid transition. `CN(C)c1ccc(-c2[nH]nc3c2C(=O)c2c(NC(=O)CN4CCC(O)CC4)cccc2-3)cc1` [Example LXXX, 3-(4-(N,N-dimethylamino)phenyl)-5-(4-hydroxypiperidinoacetamido)indeno[1,2-c]pyrazol-4-one] yielded a melting point of 267 °C.

As for `O=C(CN1CCOCC1)Nc1cccc2c1C(=O)c1c-2n[nH]c1-c1ccc(N2CCOCC2)cc1` [Example LXXXI, 3-(4-morpholinophenyl)-5-(morpholinoacetamido)indeno[1,2-c]pyrazol-4-one], the melting point amounted to 258 °C. Then `O=C(CN1CCC(O)CC1)Nc1cccc2c1C(=O)c1c-2n[nH]c1-c1ccc(N2CCOCC2)cc1` [Example LXXXIII, 3-(4-(4-morpholinyl)phenyl)-5-((4-hydroxy-1-piperidinyl)acetamido)indeno[1,2-c]pyrazol-4-one], with 245 °C; and `NCC1CCN(CC(=O)Nc2cccc3c2C(=O)c2c-3n[nH]c2-c2ccc(N3CCOCC3)cc2)CC1` [Example LXXXIV, 3-(4-morpholinophenyl)-5-(4-(aminomethyl)piperidinoacetamido)indeno[1,2-c]pyrazol-4-one], with 240 °C.

Consider `CN1CCN(NC(=O)Nc2cccc3c2C(=O)c2c-3n[nH]c2-c2ccc(N(C)C)cc2)CC1` [Example LXXXV, 3-(4-(N,N-dimethylamino)phenyl)-5-(4-methylpiperazinocarbamoylamino)indeno[1,2-c]pyrazol-4-one], for which the melting point is over 300 °C. For `COc1ccc(-c2[nH]nc3c2C(=O)c2c(NC(=S)NN4CCN(C)CC4)cccc2-3)cc1` [Example LXXXVI, 3-(4-methoxyphenyl)-5-((4-methylpiperazino)thionocarbamoylamino)indeno[1,2-c]pyrazol-4-one], the melting point is over 300 °C.

For the molecule `Cn1ccc(-c2[nH]nc3c2C(=O)c2c(NC(N)=O)cccc2-3)c1` [Example LXXXVIX, 3-(1-methyl-3-pyrrolyl)-5-(carbamoylamino)indeno[1,2-c]pyrazol-4-one], the melting point worked out at 269 °C.

`CCC(=O)Nc1cccc2c1C(=O)c1c-2n[nH]c1-c1ccc(OC)cc1` [Example V, 3-(4-methoxyphenyl)-5-(propanamido)indeno[1,2-c]pyrazol-4-one] showed a melting point of 287 °C. With `COc1ccc(-c2[nH]nc3c2C(=O)c2c(NC(=O)C4CCCC4)cccc2-3)cc1` [Example VI, 3-(4-methoxyphenyl)-5-(cyclopentanecarboxamido)indeno[1,2-c]pyrazol-4-one] the figure was 267 °C; with `COc1ccc(-c2[nH]nc3c2C(=O)c2c(NC(=O)C4CCC4)cccc2-3)cc1` [Example VII, 3-(4-methoxyphenyl)-5-(cyclobutanecarboxamido)indeno[1,2-c]pyrazol-4-one], 297 °C; with `COc1ccc(-c2[nH]nc3c2C(=O)c2c(NC(=O)Cc4ccccc4)cccc2-3)cc1` [Example VIII, 3-(4-methoxyphenyl)-5-(phenylacetamido)indeno[1,2-c]pyrazol-4-one], 280 °C.

`COc1ccc(-c2[nH]nc3c2C(=O)c2c(NC(=O)Cc4ccc(Cl)cc4)cccc2-3)cc1` [Example X, 3-(4-methoxyphenyl)-5-((4-chlorophenyl)acetamido)indeno[1,2-c]pyrazol-4-one] gave a melting point of 238 °C. Regarding `CC(=O)Nc1cccc2c1C(=O)c1c-2n[nH]c1-c1sccc1C` [Example XC, 3-(3-methyl-2-thienyl)-5-(acetamido)indeno[1,2-c]pyrazol-4-one], the melting point worked out at 275 °C. Molecule `CCc1[nH]nc2c1C(=O)c1c(NC(N)=O)cccc1-2` [Example XCI, 3-(ethyl)-5-(carbamoylamino)indeno[1,2-c]pyrazol-4-one] displayed a melting point of over 250 °C. With `CCCc1[nH]nc2c1C(=O)c1c(NC(N)=O)cccc1-2` [Example XCII, 3-(n-propyl)-5-(carbamoylamino)indeno[1,2-c]pyrazol-4-one] the figure was 187 °C. Then `CC(C)c1[nH]nc2c1C(=O)c1c(NC(N)=O)cccc1-2` [Example XCIII, 3-(i-propyl)-5-(carbamoylamino)indeno[1,2-c]pyrazol-4-one], with over 250 °C; and `CCOC(=O)c1ccc(-c2[nH]nc3c2C(=O)c2c(NC(N)=O)cccc2-3)s1` [Example XCIX, 3-(5-carboethoxy-2-thienyl)-5-(carbamoylamino)indeno[1,2-c]pyrazol-4-one], with over 280 °C; and `Cc1ccsc1-c1[nH]nc2c1C(=O)c1c(NC(N)=O)cccc1-2` [Example XCVII, 3-(3-methyl-2-thienyl)-5-(carbamoylamino)indeno[1,2-c]pyrazol-4-one], with 270 °C. Then `Cc1ccc(-c2[nH]nc3c2C(=O)c2c(NC(N)=O)cccc2-3)s1` [Example XCVIII, 3-(5-methyl-2-thienyl)-5-(carbamoylamino)indeno[1,2-c]pyrazol-4-one], with over 280 °C.

Molecule `COc1ccc(-c2[nH]nc3c2C(=O)c2c(NC(=O)Cc4cccc(OC)c4)cccc2-3)cc1` [Example XI, 3-(4-methoxyphenyl)-5-((3-methoxyphenyl)acetamido)indeno[1,2-c]pyrazol-4-one] displayed a melting point of over 300 °C. Then `COc1ccc(CC(=O)Nc2cccc3c2C(=O)c2c-3n[nH]c2-c2ccc(OC)cc2)cc1` [Example XII, 3-(4-methoxyphenyl)-5-((4-methoxyphenyl)acetamido)indeno[1,2-c]pyrazol-4-one], with 280 °C; and `COc1ccc(-c2[nH]nc3c2C(=O)c2c(NC(=O)Cc4ccc(OC)c(OC)c4)cccc2-3)cc1` [Example XIII, 3-(4-methoxyphenyl)-5-((3,4-dimethoxyphenyl)acetamido)indeno[1,2-c]pyrazol-4-one], with over 300 °C; and `COc1ccc(-c2[nH]nc3c2C(=O)c2c(NC(=O)Cc4cc(OC)ccc4OC)cccc2-3)cc1` [Example XIV, 3-(4-methoxyphenyl)-5-((2,5-dimethoxyphenyl)acetamido)indeno[1,2-c]pyrazol-4-one], with 226 °C. Consider `COc1ccc(-c2[nH]nc3c2C(=O)c2c(NC(=O)Cc4ccccc4OC)cccc2-3)cc1` [Example XIX, 3-(4-methoxyphenyl)-5-((2-methoxyphenyl)acetamido)indeno[1,2-c]pyrazol-4-one], for which the melting point is 255 °C. Molecule `COc1ccc(-c2[nH]nc3c2C(=O)c2c(NC(=O)Cc4ccc(N=[N+]=[N-])cc4)cccc2-3)cc1` [Example XL, 3-(4-methoxyphenyl)-5-((4-azidophenyl)acetamido)indeno[1,2-c]pyrazol-4-one] showed a melting point of over 300 °C. With `COc1ccc(-c2[nH]nc3c2C(=O)c2c(NC(=O)Cc4ccc(N)cc4)cccc2-3)cc1` [Example XLI, 3-(4-methoxyphenyl)-5-((4-aminophenyl)acetamido)indeno[1,2-c]pyrazol-4-one] the figure was 283 °C; with `COc1ccc(-c2[nH]nc3c2C(=O)c2c(NC(=O)Nc4ccccc4)cccc2-3)cc1` [Example XLII, 3-(4-methoxyphenyl)-5-((phenylcarbamoyl)amino)indeno [1,2-c]pyrazol-4-one], over 300 °C; with `CC(=O)Nc1cccc2c1C(=O)c1c-2n[nH]c1-c1ccncc1` [Example XLIX, 3-(4-pyridyl)-5-(acetamido)indeno [1,2-c]pyrazol-4-one], over 300 °C. Then `CC(=O)Nc1cccc2c1C(=O)c1c-2n[nH]c1-c1ccc(O)cc1` [Example XLVI, 3-(4-hydroxyphenyl)-5-(acetamido)indeno[1,2-c]pyrazol-4-one], with over 300 °C; and `COc1ccc(-c2[nH]nc3c2C(=O)c2c(NC=O)cccc2-3)cc1` [Example XLVII, 3-(4-methoxyphenyl)-5-(formamido)indeno[1,2-c]pyrazol-4-one], with 280 °C; and `CC(=O)Nc1cccc2c1C(=O)c1c-2n[nH]c1-c1cccnc1` [Example XLVIII, 3-(3-pyridyl)-5-(acetamido)indeno [1,2-c]pyrazol-4-one], with over 300 °C. With `COc1ccccc1-c1[nH]nc2c1C(=O)c1c(NC(C)=O)cccc1-2` [Example XV, 3-(2-methoxyphenyl)-5-(acetamido)indeno[1,2-c]pyrazol-4-one] the figure was 276 °C; with `COc1ccc(-c2[nH]nc3c2C(=O)c2c(NC(C)=O)cccc2-3)cc1OC` [Example XVI, 3-(3,4-dimethoxyphenyl)-5-(acetamido)indeno[1,2-c]pyrazol-4-one], over 300 °C. The molecule `COc1ccc(-c2[nH]nc3c2C(=O)c2c(NC(=O)Cc4ccccc4Cl)cccc2-3)cc1` [Example XXII, 3-(4-methoxyphenyl)-5-((2-chlorophenyl)acetamido)indeno[1,2-c]pyrazol-4-one] showed a melting point of 300 °C. `COc1ccc(-c2[nH]nc3c2C(=O)c2c(NC(=O)CN)cccc2-3)cc1` [Example XXIII, 3-(4-methoxyphenyl)-5-(aminoacetamido)indeno[1,2-c]pyrazol-4-one] showed a melting point of over 300 °C.

On to `COc1ccc(-c2[nH]nc3c2C(=O)c2c(NC(=O)CNCCO)cccc2-3)cc1` [Example XXIV, 3-(4-methoxyphenyl)-5-((2-hydroxyethyl)aminoacetamido)indeno[1,2-c]pyrazol-4-one], for which the melting point came out at 243 °C. With `COc1ccc(-c2[nH]nc3c2C(=O)c2c(NC(=O)CN4CCCCC4)cccc2-3)cc1` [Example XXIX, 3-(4-methoxyphenyl)-5-(piperidinoacetamido)indeno[1,2-c]pyrazol-4-one] the figure was 291 °C. With `COc1ccc(-c2[nH]nc3c2C(=O)c2c(NC(=O)CN4CCNCC4)cccc2-3)cc1` [Example XXVI, 3-(4-methoxyphenyl)-5-(piperazinoacetamido)indeno[1,2-c]pyrazol-4-one] the figure was 277 °C; with `COc1ccc(-c2[nH]nc3c2C(=O)c2c(NC(=O)CN4CCN(C)CC4)cccc2-3)cc1` [Example XXVII, 3-(4-methoxyphenyl)-5-(4-methylpiperazinoacetamido)indeno[1,2-c]pyrazol-4-one], over 300 °C.
